Test results published in PubChem BioAssay AID1963870 (Molecular Pharmacology Branch, DTP, NCI, 2024).

Test system: 292921-168-R-J2-PDC KRAS tumor spheroid viability
Experiment: Anticancer human tumor 292921-168-R-J2-PDC patient-derived pancreatic carcinoma cell line growth inhibition [KRAS2]
Conditions: spheroids with HUVEC and MSC; for IC50: curve of first compound; for viability, T/C: stronger effect = lower value
Procedure, shortened: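 Combination screen of spheroid viability in tumor-cell co-cultures with endothelial (HUVEC) and mesenchymal stem cell stroma. Each agent was tested in half-log dilutions, topping at clinical Cmax or at 10 microM without a known Cmax.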

[1] = second compound 0.0316 µM, first compound 0.0316 µM
[2] = second compound 0.0316 µM, first compound 0.1 µM
[3] = second compound 0.0316 µM, first compound 0.316 µM
[4] = second compound 0.0316 µM, first compound 1 µM
[5] = second compound 0.0316 µM, first compound 3.16 µM
[6] = second compound 0.0316 µM, first compound 10 µM
[7] = second compound 0.1 µM, first compound 0.0316 µM
[8] = second compound 0.1 µM, first compound 0.1 µM
[9] = second compound 0.1 µM, first compound 0.316 µM
[10] = second compound 0.1 µM, first compound 1 µM
[11] = second compound 0.1 µM, first compound 3.16 µM
[12] = second compound 0.1 µM, first compound 10 µM
[13] = second compound 0.316 µM, first compound 0.0316 µM
[14] = second compound 0.316 µM, first compound 0.1 µM
[15] = second compound 0.316 µM, first compound 0.316 µM
[16] = second compound 0.316 µM, first compound 1 µM
[17] = second compound 0.316 µM, first compound 3.16 µM
[18] = second compound 0.316 µM, first compound 10 µM
[19] = second compound 1 µM, first compound 0.0316 µM
[20] = second compound 1 µM, first compound 0.1 µM
[21] = second compound 1 µM, first compound 0.316 µM
[22] = second compound 1 µM, first compound 1 µM
[23] = second compound 1 µM, first compound 3.16 µM
[24] = second compound 1 µM, first compound 10 µM
[25] = second compound 3.16 µM, first compound 0.0316 µM
[26] = second compound 3.16 µM, first compound 0.1 µM
[27] = second compound 3.16 µM, first compound 0.316 µM
[28] = second compound 3.16 µM, first compound 1 µM
[29] = second compound 3.16 µM, first compound 3.16 µM
[30] = second compound 3.16 µM, first compound 10 µM
[31] = second compound 0.0316 µM, first compound 0.000316 µM
[32] = second compound 0.0316 µM, first compound 0.001 µM
[33] = second compound 0.0316 µM, first compound 0.00316 µM
[34] = second compound 0.0316 µM, first compound 0.01 µM
[35] = second compound 0.1 µM, first compound 0.000316 µM
[36] = second compound 0.1 µM, first compound 0.001 µM
[37] = second compound 0.1 µM, first compound 0.00316 µM
[38] = second compound 0.1 µM, first compound 0.01 µM
[39] = second compound 0.316 µM, first compound 0.000316 µM
[40] = second compound 0.316 µM, first compound 0.001 µM
[41] = second compound 0.316 µM, first compound 0.00316 µM
[42] = second compound 0.316 µM, first compound 0.01 µM
[43] = second compound 1 µM, first compound 0.000316 µM
[44] = second compound 1 µM, first compound 0.001 µM
[45] = second compound 1 µM, first compound 0.00316 µM
[46] = second compound 1 µM, first compound 0.01 µM
[47] = second compound 3.16 µM, first compound 0.000316 µM
[48] = second compound 3.16 µM, first compound 0.001 µM
[49] = second compound 3.16 µM, first compound 0.00316 µM
[50] = second compound 3.16 µM, first compound 0.01 µM
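Further: drug exposure lasted seven days after spheroids formed for three days.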
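Wherever viability, T/C is given: percent of DMSO vehicle control viability which is 100%.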

| SMILES | IC50 (second compound 0.0316 µM) | IC50 (second compound 0.1 µM) | IC50 (second compound 0.316 µM) | IC50 (second compound 1 µM) | IC50 (second compound 3.16 µM) | viability, T/C [1] | viability, T/C [2] | viability, T/C [3] | viability, T/C [4] | viability, T/C [5] | viability, T/C [6] | viability, T/C [7] | viability, T/C [8] | viability, T/C [9] | viability, T/C [13] | viability, T/C [14] | viability, T/C [19] | viability, T/C [20] | viability, T/C [25] | viability, T/C [26] | further results |
| --- | --- | --- | --- | --- | --- | --- | --- | --- | --- | --- | --- | --- | --- | --- | --- | --- | --- | --- | --- | --- | --- |
| CC(C)NCC(C(=O)N1CCN(c2ncnc3c2C(C)CC3O)CC1)c1ccc(Cl)cc1 (stereo not given) + C=CC(=O)N1CCN(c2nc(OCC3CCCN3C)nc3c2CCN(c2cccc4cccc(C)c24)C3)CC1CC#N | > 10 µM | > 10 µM | 6.01 µM | < 0.0316 µM | < 0.0316 µM | 88% | 84.6% | 84.5% | 82% | 73.9% | 54.7% | 85.2% | 78.6% | 85.3% | 71.5% | 68.5% | 36.7% | 28.8% | 0.1% | 0.09% | viability, T/C [10]: 79.3%; viability, T/C [11]: 74.4%; viability, T/C [12]: 51.8%; viability, T/C [15]: 65.1%; viability, T/C [16]: 69.2%; viability, T/C [17]: 59%; viability, T/C [18]: 42.3%; viability, T/C [21]: 28.9%; viability, T/C [22]: 32.1%; viability, T/C [23]: 28.1%; viability, T/C [24]: 21%; viability, T/C [27]: 0.09%; viability, T/C [28]: 0.1%; viability, T/C [29]: 0.11%; viability, T/C [30]: 0.21% |
| CC(C)n1nc(-c2ccc3oc(N)nc3c2)c2c(N)ncnc21 + C=CC(=O)N1CCN(c2nc(OCC3CCCN3C)nc3c2CCN(c2cccc4cccc(C)c24)C3)CC1CC#N | 0.00249 µM | 0.00284 µM | 0.00107 µM | < 0.000316 µM | < 0.000316 µM | 25.3% | 21.1% | – | – | – | – | 21.4% | 20.9% | – | 21.6% | 18.5% | 15.7% | 13.8% | 0.47% | 0.73% | viability, T/C [31]: 78.8%; viability, T/C [32]: 62.7%; viability, T/C [33]: 48.3%; viability, T/C [34]: 30.8%; viability, T/C [35]: 83.3%; viability, T/C [36]: 70.8%; viability, T/C [37]: 47.3%; viability, T/C [38]: 31%; viability, T/C [39]: 70.2%; viability, T/C [40]: 50.5%; viability, T/C [41]: 36.9%; viability, T/C [42]: 28.6%; viability, T/C [43]: 30.9%; viability, T/C [44]: 25.5%; viability, T/C [45]: 23.8%; viability, T/C [46]: 17.8%; viability, T/C [47]: 1.12%; viability, T/C [48]: 0.57%; viability, T/C [49]: 0.82%; viability, T/C [50]: 0.33% |
| CC1(C)CCC(CN2CCN(c3ccc(C(=O)NS(=O)(=O)c4ccc(NCC5CCOCC5)c([N+](=O)[O-])c4)c(Oc4cnc5[nH]ccc5c4)c3)CC2)=C(c2ccc(Cl)cc2)C1 + C=CC(=O)N1CCN(c2nc(OCC3CCCN3C)nc3c2CCN(c2cccc4cccc(C)c24)C3)CC1CC#N | 2.04 µM | 2.1 µM | 1.81 µM | 0.43 µM | < 0.0316 µM | 99.8% | 101% | 96.1% | 92.5% | 23.8% | 4.26% | 98.1% | 103% | 100% | 88.2% | 98.4% | 58% | 59.7% | 0.13% | 0.2% | viability, T/C [10]: 96.1%; viability, T/C [11]: 24.7%; viability, T/C [12]: 4.98%; viability, T/C [15]: 83.2%; viability, T/C [16]: 90.2%; viability, T/C [17]: 12.6%; viability, T/C [18]: 4.29%; viability, T/C [21]: 52%; viability, T/C [22]: 35.3%; viability, T/C [23]: 2.72%; viability, T/C [24]: 2.98%; viability, T/C [27]: 0.14%; viability, T/C [28]: 0.12%; viability, T/C [29]: 0.37%; viability, T/C [30]: 0.26% |
| CCNC(=O)CC1N=C(c2ccc(Cl)cc2)c2cc(OC)ccc2-n2c(C)nnc21 (stereo not given) + C=CC(=O)N1CCN(c2nc(OCC3CCCN3C)nc3c2CCN(c2cccc4cccc(C)c24)C3)CC1CC#N | > 10 µM | 1.23 µM | 0.644 µM | < 0.0316 µM | < 0.0316 µM | 104% | 99.5% | 69.9% | 63.6% | 53.9% | 49.2% | 94% | 90.2% | 59.1% | 106% | 92.2% | 42.4% | 33% | 0.21% | 0.11% | viability, T/C [10]: 53.7%; viability, T/C [11]: 48%; viability, T/C [12]: 34.3%; viability, T/C [15]: 59.2%; viability, T/C [16]: 45.1%; viability, T/C [17]: 34.2%; viability, T/C [18]: 29.2%; viability, T/C [21]: 26.1%; viability, T/C [22]: 18.4%; viability, T/C [23]: 13.7%; viability, T/C [24]: 8.19%; viability, T/C [27]: 0.1%; viability, T/C [28]: 0.1%; viability, T/C [29]: 0.1%; viability, T/C [30]: 0.26% |
| Cn1ncnc1[C@H]1c2n[nH]c(=O)c3cc(F)cc(c23)N[C@@H]1c1ccc(F)cc1 + C=CC(=O)N1CCN(c2nc(OCC3CCCN3C)nc3c2CCN(c2cccc4cccc(C)c24)C3)CC1CC#N | > 0.1 µM | > 0.1 µM | 0.0819 µM | < 0.000316 µM | < 0.000316 µM | 81.7% | 67.3% | – | – | – | – | 77.6% | 63.7% | – | 65% | 46.4% | 29.8% | 28.3% | 0.13% | 0.17% | viability, T/C [31]: 99.5%; viability, T/C [32]: 93%; viability, T/C [33]: 93.2%; viability, T/C [34]: 93.6%; viability, T/C [35]: 96.7%; viability, T/C [36]: 93.5%; viability, T/C [37]: 91.7%; viability, T/C [38]: 83.6%; viability, T/C [39]: 88.1%; viability, T/C [40]: 82.1%; viability, T/C [41]: 72.9%; viability, T/C [42]: 74.9%; viability, T/C [43]: 42.1%; viability, T/C [44]: 42.9%; viability, T/C [45]: 37.1%; viability, T/C [46]: 32.5%; viability, T/C [47]: 0.3%; viability, T/C [48]: 0.12%; viability, T/C [49]: 0.12%; viability, T/C [50]: 0.11% |
